Experimental data published in patent publication EP0946580B1, “NOVEL ERYTHROMYCIN DERIVATIVES, METHOD OF PREPARATION AND APPLICATION AS MEDICINES” (Aventis Pharma S.A., priority 1996, dated 1998).
Values after ≈ are worked out from the molar mass of the structure shown.

Legend:
Assay type in all cases: cell-based
[1] = tested on: Staphylococcus aureus 011UC4; assay: Liquid medium dilution method (MIC); conditions: 24 h incubation at 37°C, read-out: concentrations minimales inhibitrices (C.M.I.)
Procedure: (§1) Méthode des dilutions en milieu liquide
(§2) On a préparé une série de tubes dans lesquels on répartit une même quantité de milieu nutritif stérile. On distribue dans chaque tube des quantités croissantes du produit à étudier, puis chaque tube est ensemencé avec une souche bactérienne. Après incubation de vingt-quatre heures à l'étuve à 37°C, l'inhibition de la croissance est appréciée par transillumination de ce qui permet de déterminer les concentrations minimales inhibitrices (C.M.I.) exprimées en microgrammes/cm^3.

[2] = tested on: Staphylococcus epidermidis 012GO11I; assay: Liquid medium dilution method (MIC); conditions: 24 h incubation at 37°C, read-out: concentrations minimales inhibitrices (C.M.I.)
Procedure: as §1, §2

[3] = tested on: Streptococcus agalactiae groupe B 02B1HT1; assay: Liquid medium dilution method (MIC); conditions: 24 h incubation at 37°C, read-out: concentrations minimales inhibitrices (C.M.I.)
Procedure: as §1, §2

[4] = tested on: Streptococcus agalactiae groupe B 02B1SJ1; assay: Liquid medium dilution method (MIC); conditions: 24 h incubation at 37°C, read-out: concentrations minimales inhibitrices (C.M.I.)
Procedure: as §1, §2

[5] = tested on: Streptococcus faecalis groupe D 02D2UC1; assay: Liquid medium dilution method (MIC); conditions: Enterococcus faecalis, 24 h incubation at 37°C, read-out: concentrations minimales inhibitrices (C.M.I.)
Procedure: as §1, §2

[6] = tested on: Streptococcus faecium groupe D 02D3HT1; assay: Liquid medium dilution method (MIC); conditions: Enterococcus faecium, 24 h incubation at 37°C, read-out: concentrations minimales inhibitrices (C.M.I.)
Procedure: as §1, §2

[7] = tested on: Streptococcus mitis 02mitCB1; assay: Liquid medium dilution method (MIC); conditions: 24 h incubation at 37°C, read-out: concentrations minimales inhibitrices (C.M.I.)
Procedure: as §1, §2

[8] = tested on: Streptococcus mitis 02mitGR16I; assay: Liquid medium dilution method (MIC); conditions: 24 h incubation at 37°C, read-out: concentrations minimales inhibitrices (C.M.I.)
Procedure: as §1, §2

[9] = tested on: Streptococcus pneumoniae 030ROIi; assay: Liquid medium dilution method (MIC); conditions: 24 h incubation at 37°C, read-out: concentrations minimales inhibitrices (C.M.I.)
Procedure: as §1, §2

[10] = tested on: Streptococcus pyogenes groupe A 02A1UC1; assay: Liquid medium dilution method (MIC); conditions: 24 h incubation at 37°C, read-out: concentrations minimales inhibitrices (C.M.I.)
Procedure: as §1, §2

[11] = tested on: Streptococcus sp groupe G 02G0GR5; assay: Liquid medium dilution method (MIC); conditions: 24 h incubation at 37°C, read-out: concentrations minimales inhibitrices (C.M.I.)
Procedure: as §1, §2

[12] = tested on: Haemophilus Influenzae 351HT3; assay: Activity on gram-negative bacterial strains
[13] = tested on: Haemophilus Influenzae 351CB12; assay: Activity on gram-negative bacterial strains
[14] = tested on: Haemophilus Influenzae 351CA1; assay: Activity on gram-negative bacterial strains
[15] = tested on: Haemophilus Influenzae 351GR6; assay: Activity on gram-negative bacterial strains

MIC [1]: 0.08 µg/mL (≈ 0.101 µM) | MIC [2]: 0.15 µg/mL (≈ 0.188 µM) | MIC [3]: ≤ 0.02 µg/mL | MIC [4]: 0.08 µg/mL (≈ 0.101 µM) | MIC [5]: ≤ 0.02 µg/mL | MIC [6]: ≤ 0.02 µg/mL | MIC [7]: ≤ 0.02 µg/mL | MIC [8]: ≤ 0.02 µg/mL | MIC [9]: ≤ 0.02 µg/mL | MIC [10]: ≤ 0.02 µg/mL | MIC [11]: ≤ 0.02 µg/mL
Compound: CCC1OC(=O)C(C)=CC(C)C(OC2OC(C)CC(N(C)C)C2O)C(C)(OC)CC(C)C(=O)C(C)C2N(CCCCn3cnc(-c4cccnc4)c3)C(=O)OC12C [Ex. 1, 2,3-didéhydro-11,12-didéoxy-3-de[(2,6-didéoxy-3-C-méthyl-3-O-méthyl-alpha-L-ribo-hexopyranosyl)oxy]6-O-méthyl-12,11-[oxycarbonyl[[4-[4-(3-pyridinyl)-1H-imidazol-1-yl]butyl]imino]]-érythromycine]
activité sur les souches bactériennes à gram^⊖ [12]: activité intéressante | activité sur les souches bactériennes à gram^⊖ [13]: activité intéressante | activité sur les souches bactériennes à gram^⊖ [14]: activité intéressante | activité sur les souches bactériennes à gram^⊖ [15]: activité intéressante
